Laboratory results: the NIST ThermoML archive (doi:10.1016/j.fluid.2012.06.031)

What was measured:
[1] = refractive index (Na D-line) (dimensionless); conditions: 298.15 K; 101.33 kPa; Liquid; Standard Abbe refractometry
[2] = 298.15 K; 101.33 kPa; Liquid; Pycnometric method
[3] = refractive index (Na D-line) (dimensionless); xn = mol fraction of the nth substance listed; conditions: 298.15 K, 101 kPa, Liquid, Standard Abbe refractometry
[4] = xn = mol fraction of the nth substance listed; conditions: 298.15 K, 101 kPa, Liquid, Pycnometric method
[5] = excess molar enthalpy (molar enthalpy of mixing); xn = mol fraction of the nth substance listed; conditions: 298.15 K, 101 kPa, Liquid, solution calorimetry

CC(C)CC(C)(C)C [2,2,4-trimethylpentane]
Conditions | mass density [kg/m3] | refractive index
[1] | – | 1.3889
[2] | 687.9 | –

CC(C)CC(C)(C)C [2,2,4-trimethylpentane] + CCCCO
Conditions | excess molar enthalpy, [5] [kcal/mol] | mass density, [4] [kg/m3] | refractive index, [3]
x2 = 0.05 | 0.0947 | – | –
x2 = 0.0501 | – | 690.95 | 1.38897
x2 = 0.1 | 0.1201 | – | –
x2 = 0.1001 | – | 694.28 | 1.38909
x2 = 0.1501 | – | 697.81 | 1.38925
x2 = 0.1502 | 0.1362 | – | –
x2 = 0.2 | 0.1404 | 701.56 | 1.38946
x2 = 0.2995 | 0.1489 | – | –
x2 = 0.3001 | – | 709.77 | 1.38999
x2 = 0.3999 | – | 718.98 | 1.39067
x2 = 0.4 | 0.1503 | – | –
x2 = 0.5 | – | 729.4 | 1.39149
x2 = 0.5001 | 0.1419 | – | –
x2 = 0.5999 | – | 741.16 | 1.39244
x2 = 0.6002 | 0.1233 | – | –
x2 = 0.6999 | – | 754.51 | 1.3935
x2 = 0.7 | 0.0968 | – | –
x2 = 0.8 | 0.0686 | 769.68 | 1.39466
x2 = 0.8499 | 0.0532 | – | –
x2 = 0.85 | – | 778.03 | 1.39527
x2 = 0.9 | 0.0359 | 786.94 | 1.3959
x2 = 0.9499 | 0.0188 | – | –
x2 = 0.95 | – | 796.46 | 1.39654

CC(C)CC(C)(C)C [2,2,4-trimethylpentane] + CCCO
Conditions | excess molar enthalpy, [5] [kcal/mol] | mass density, [4] [kg/m3] | refractive index, [3]
x2 = 0.0502 | – | 689.82 | 1.3885
x2 = 0.0516 | 0.0974 | – | –
x2 = 0.1 | 0.1255 | – | –
x2 = 0.1002 | – | 692.19 | 1.38816
x2 = 0.15 | 0.1338 | – | –
x2 = 0.1504 | – | 694.9 | 1.38785
x2 = 0.1999 | – | 697.87 | 1.38759
x2 = 0.2001 | 0.1457 | – | –
x2 = 0.3 | – | 704.65 | 1.38712
x2 = 0.3001 | 0.1564 | – | –
x2 = 0.3999 | – | 712.46 | 1.38669
x2 = 0.4001 | 0.1561 | – | –
x2 = 0.5 | – | 721.44 | 1.38627
x2 = 0.5002 | 0.144 | – | –
x2 = 0.6001 | 0.1255 | 731.85 | 1.3858
x2 = 0.7 | – | 744.14 | 1.38526
x2 = 0.7048 | 0.0969 | – | –
x2 = 0.7999 | – | 758.95 | 1.38462
x2 = 0.8 | 0.0709 | – | –
x2 = 0.85 | 0.0561 | 767.56 | 1.38426
x2 = 0.8998 | 0.0388 | – | –
x2 = 0.9 | – | 777.1 | 1.38387
x2 = 0.9499 | 0.0204 | – | –
x2 = 0.9501 | – | 787.71 | 1.38345

CCCCO [butan-1-ol]
Conditions | mass density [kg/m3] | refractive index
[1] | – | 1.3974
[2] | 805.8 | –

CCCCCO [pentan-1-ol]
Conditions | mass density [kg/m3] | refractive index
[1] | – | 1.4078
[2] | 810.8 | –

CCCCCO [pentan-1-ol] + CC(C)CC(C)(C)C
Conditions | excess molar enthalpy, [5] [kcal/mol] | mass density, [4] [kg/m3] | refractive index, [3]
x1 = 0.05 | 0.09 | – | –
x1 = 0.0501 | – | 691.14 | 1.38936
x1 = 0.0998 | 0.1135 | – | –
x1 = 0.1 | – | 695.2 | 1.38993
x1 = 0.1499 | – | 699.5 | 1.39059
x1 = 0.15 | 0.127 | – | –
x1 = 0.1996 | 0.1326 | – | –
x1 = 0.2017 | – | 704.19 | 1.39135
x1 = 0.2997 | 0.1439 | – | –
x1 = 0.3001 | – | 713.84 | 1.39297
x1 = 0.3999 | 0.1413 | – | –
x1 = 0.4 | – | 724.6 | 1.39478
x1 = 0.4998 | 0.1317 | – | –
x1 = 0.5001 | – | 736.36 | 1.3967
x1 = 0.5999 | 0.109 | – | –
x1 = 0.6001 | – | 749.12 | 1.3987
x1 = 0.7 | 0.091 | 762.91 | 1.40077
x1 = 0.7999 | – | 777.72 | 1.40293
x1 = 0.8 | 0.063 | – | –
x1 = 0.85 | 0.0472 | 785.54 | 1.40407
x1 = 0.9 | 0.0321 | 793.63 | 1.40525
x1 = 0.95 | 0.015 | 801.98 | 1.40649

CCCO [propan-1-ol]
Conditions | mass density [kg/m3] | refractive index
[1] | – | 1.3832
[2] | 799.6 | –
